Laboratory results from patent US10945978B2, “Treatment and diagnosis of melanoma” (The Rockefeller University, priority 2012, dated 2021).
Structures can show the parent of a compound that is named as a salt.

Experiments:
DNAJA4 = DNAJA4 expression by qRT-PCR in parental MeWo cells; format: cell-based, human; conditions: GW3965 48 hours
Procedure: Total RNA was extracted from various cell lines using the miRvana kit (AM1560, Applied Biosystems, Austin, Tex.). The expression levels of mature miRNAs were quantified using the Taqman miRNA expression assay (4427975-0002228, Applied Biosystems). RNU44 was used as an endogenous control for normalization. For mRNA expression analyses, 600 ng of total RNA was reverse transcribed using the cDNA First-Strand Synthesis Kit (18080-051, Invitrogen), and roughly 200 ng of the resulting cDNA was then mixed with SYBR green PCR Master Mix (4309155, Applied Biosystems) and the appropriate primers. Each reaction was performed in quadruplicate, and mRNA expression was quantified by performing real-time PCR amplification using an ABI Prism 7900HT Real-Time PCR System (Applied Biosystems). GAPDH was used as an endogenous control for normalization. The following primers were used: […]

[1] = system: MeWo human melanoma cells; experiment: Subcutaneous MeWo tumor growth in immunocompromised mice; format: in vivo; conditions: oral, GW3965-supplemented diet
Procedure: Animals were palpated weekly for tumor formation, after which sizeable tumors were measured twice a week. Tumor volume was calculated as (small diameter)^2×(large diameter)/2.

[2] = system: MeWo human melanoma cells; experiment: Tumor histochemistry (MECA-32, Ki-67, cleaved caspase-3) of MeWo tumors; format: in vivo; conditions: GW3965 diet 20 mg/kg, 35 days
From the text: Animals were intracardially perfused with PBS followed by 4% paraformaldehyde (PFA). Fixed lungs were embedded in paraffin and sectioned into 5-jam-thick increments. Macroscopic lung metastatic nodules were visualized by H&E staining. For analysis of tumor endothelial cell content, proliferation, and apoptosis, primary tumor paraffin-embedded sections were stained with antibodies against MECA-32 (Developmental Studies Hybridoma Bank, University of Iowa), KI-67 (ab15580, Abcam), and cleaved caspase-3 (9661, Cell Signaling), respectively.
Tumors were excised from mice and fixed in 4% paraformaldehyde at 4° C. for 48 hours. Then, tumors were paraffin-embedded and sectioned into 5-μm-thick increments. For endothelial cell content analysis in tumors, tumor sections were stained with a primary antibody against the mouse endothelial cell marker MECA-32 (Developmental Studies Hybridoma Bank, The University of Iowa, IA) and counterstained with DAPI nuclear stain. To determine tumor cell proliferation and apoptosis, tumor sections were stained with antibodies against the proliferative marker Ki-67 (Abcam, ab15580, Cambridge, Mass.) and the apoptotic marker cleaved caspase-3 (9661, Cell Signaling, Danvers, Mass.), respectively. Various Alexa Flour dye-conjugated secondary antibodies were used to detect primary antibodies. […] Endothelial cell content density and tumor proliferation rate were quantified by calculating the average percentage of MECA-32 or Ki-67 positively-staining area out of the total tumor area. Tumor apoptosis was measured by counting the number of cleaved caspase-3 expressing cells per given tumor area.

[3] = system: B16F10 parental and DTIC-resistant cells; experiment: Tumor growth by DTIC-sensitive and DTIC-resistant B16F10 cells; format: in vivo, mouse; conditions: chow supplemented with GW3965 100 mg/kg
Procedure: First, the cells were treated with 500 μg/mL DTIC for one week. Following this initial DTIC treatment, the remaining (˜10%) viable cells were allowed to recover for one week, after which 750 rag/mL of DTIC was added to the cell media for 5 days. Subsequent to this high-dose treatment, the cells were allowed to recover in the presence of low-dose DTIC (100 jag/mL) for one week. The cells were then continuously cultured in cell media containing 200 rag/mL DTIC for at least one month prior to grafting the cells into mice. DTIC was added to fresh cancer cell media every 3 days.

[4] = system: RCC human renal cancer cells, PANC1 human pancreatic cancer cells, H460 human lung cancer cells; experiment: Matrigel invasion of renal, pancreatic and lung cancer cells treated with GW3965; format: cell-based; conditions: 1 μM for 72 hours prior to the assay
Procedure: Various cell lines (5×10^4 RCC human renal cancer cells, 5×10^4 PANC1 human pancreatic cancer cells, and 5×10^4 H460 human lung cancer cells) were treated with DMSO or GW3965 at 1 μM for 56 hours. The cells were serum starved for 16 hours in 0.2% FBS media in the presence of DMSO or GW3965. Following serum starvation, the cells were subjected to the trans-well invasion assay using a matrigel invasion chamber system (354480, BD Biosciences). Invasion chambers were pre-equilibrated prior to the assay by adding 0.5 mL of starvation media to the top and bottom wells. Meanwhile, cancer cells were trypsinized and viable cells were counted using trypan blue. Cancer cells were then resuspended at a concentration of 1×10^5 cells/1 mL starvation media, and 0.5 mL of cell suspension, containing 5×10^4 cells, was seeded into each trans-well. The invasion assay was allowed to proceed for 24 hours at 37° C. […] Following fixation, the inserts were washed in PBS and then cut out and mounted onto slides using VectaShield mounting medium containing DAPI nuclear stain (H-1000, Vector Laboratories). The basal side of each insert was imaged using an inverted fluorescence microscope (Zeiss Axiovert 40 CFL) at 5× magnification, and the number of DAPI-positive cells was quantified using ImageJ.

[5] = system: DTIC-resistant MeWo human melanoma cells; conditions: oral, GW3965 diet 100 mg/kg
Procedure: Following growth of tumors to 5-10 mm^3 in volume, mice were blindedly assigned to the following treatment groups: (1) control diet; (2) control diet+DTIC (50 mg/kg); (3) GW3965-supplemented diet (100 mg/kg). […] DTIC was administered daily, as described above, in cycles consisting of 5 consecutive daily treatments interspersed by 2-day off-treatment intervals. Tumor growth was measured twice a week.

[6] = system: breast cancer, renal cell cancer, and pancreatic cancer cell lines; experiment: Matrigel invasion of breast, renal cell and pancreatic cancer cell lines with recombinant ApoE; format: cell-based, human; conditions: recombinant ApoE3 100 μg/mL vs BSA
Procedure: The ability of cancer cells to invade through matrigel in vitro was tested by using a trans-well matrigel invasion chamber system (354480, BD Biosciences). Various cancer cell lines were serum-starved overnight in media containing 0.2% FBS. The following day, invasion chambers were pre-equilibrated prior to the assay by adding 0.5 mL of starvation media to the top and bottom wells. Meanwhile, cancer cells were trypsinized and viable cells were counted using the trypan blue dead cell exclusion dye. Cancer cells were then resuspended at a concentration of 1×10^5 cells/1 mL starvation media, and 0.5 mL of cell suspension, containing 5×10^4 cells, was seeded into each trans-well. To determine the effect of recombinant ApoE on cancer cell invasion, human recombinant ApoE3 (4696, Biovision) or BSA were added to each trans-well at 100 μg/mL at the start of the assay. The invasion assay was allowed to proceed for 24 hours at 37° C. […] Following fixation, the inserts were washed in PBS and then cut out and mounted onto slides using VectaShield mounting medium containing DAPI nuclear stain (H-1000, Vector Laboratories). The basal side of each insert was imaged using an inverted fluorescence microscope (Zeiss Axiovert 40 CFL) at 5× magnification, and the number of DAPI-positive cells was quantified using ImageJ.

endothelial cells = experiment: Endothelial recruitment by breast, renal cell and pancreatic cancer cells with ApoE; format: cell-based

Molecule	expression of DNAJA4 (DNAJA4)	tumor growth inhibition [1] [%]	decrease in the number of actively proliferating tumor cells ([2]; Ki-67) [%]	reduction in the endothelial cell content of tumors ([2]; MECA-32)	number of apoptotic cells ([2]; cleaved caspase-3)	suppression of tumor growth by the DTIC-resistant B16F10 clone [3]	tumor cell invasion [4]	growth of in vivo-derived DTIC-resistant human melanoma tumors [5]	tumor cell invasion [6]	endothelial recruitment (endothelial cells)
O=C(O)Cc1cccc(OCCCN(Cc2cccc(C(F)(F)F)c2Cl)CC(c2ccccc2)c2ccccc2)c1 [GW3965 2, 3-[3-[N-(2-Chloro-3-trifluoromethylbenzyl)-(2,2-diphenylethyl)amino]propyloxy] phenylacetic acid hydrochloride]	increased	70	23	roughly 2 fold	without a change	more than 70%	inhibition	strongly inhibited	–	–
recombinant human ApoE: recombinant human ApoE3 (4696, BioVision)	–	–	–	–	–	–	–	–	inhibited	inhibited
